# From publication PMC12155096 (International Journal of Molecular Sciences, 2025)
# Read-outs that look alike come from different tables or passages of the source.
# Key:
# [1] = target: Photinus pyralis (firefly) luciferase (Photinus pyralis, UniProt P08659); experiment: biochemical; assay type: biochemical
# human CYP1A2 [2] = target: T1, human CYP1A2 (Homo sapiens, UniProt P05177)
# T1 sequence (P05177 1-516): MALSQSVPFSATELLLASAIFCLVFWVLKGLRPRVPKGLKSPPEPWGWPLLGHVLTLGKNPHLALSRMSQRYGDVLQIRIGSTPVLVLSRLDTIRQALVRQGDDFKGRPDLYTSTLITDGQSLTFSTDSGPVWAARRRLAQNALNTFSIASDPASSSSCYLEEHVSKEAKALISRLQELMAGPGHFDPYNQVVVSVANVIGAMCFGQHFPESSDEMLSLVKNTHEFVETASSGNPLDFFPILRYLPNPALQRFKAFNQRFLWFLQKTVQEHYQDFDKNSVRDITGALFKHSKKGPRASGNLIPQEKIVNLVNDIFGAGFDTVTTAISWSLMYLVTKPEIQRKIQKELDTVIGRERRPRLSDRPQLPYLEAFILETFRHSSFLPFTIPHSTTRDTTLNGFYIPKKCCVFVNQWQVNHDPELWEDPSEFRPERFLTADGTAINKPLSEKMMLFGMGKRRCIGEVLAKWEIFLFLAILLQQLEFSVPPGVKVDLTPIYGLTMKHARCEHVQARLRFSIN
# human CYP2C19 [3] = target: T2, human CYP2C19 (Homo sapiens, UniProt P33261)
# human CYP2D6 = human CYP2D6 (Homo sapiens, UniProt P10635)
# CYP3A4 = CYP3A4 (Homo sapiens, UniProt P08684)
# human CYP2C9 [4] = target: T3, human CYP2C9 (Homo sapiens, UniProt P11712); experiment: biochemical
# human CYP2C9 [5] = target: T3, human CYP2C9
# human CYP1A2 [6] = target: T1, human CYP1A2; experiment: biochemical
# human CYP2C19 [7] = target: T2, human CYP2C19; experiment: biochemical
# [8] = CYP2C9 IC50 (half-maximal inhibitory concentration)
# [9] = CYP2C19 IC50 (half-maximal inhibitory concentration)
# T3 sequence (P11712 whole entry): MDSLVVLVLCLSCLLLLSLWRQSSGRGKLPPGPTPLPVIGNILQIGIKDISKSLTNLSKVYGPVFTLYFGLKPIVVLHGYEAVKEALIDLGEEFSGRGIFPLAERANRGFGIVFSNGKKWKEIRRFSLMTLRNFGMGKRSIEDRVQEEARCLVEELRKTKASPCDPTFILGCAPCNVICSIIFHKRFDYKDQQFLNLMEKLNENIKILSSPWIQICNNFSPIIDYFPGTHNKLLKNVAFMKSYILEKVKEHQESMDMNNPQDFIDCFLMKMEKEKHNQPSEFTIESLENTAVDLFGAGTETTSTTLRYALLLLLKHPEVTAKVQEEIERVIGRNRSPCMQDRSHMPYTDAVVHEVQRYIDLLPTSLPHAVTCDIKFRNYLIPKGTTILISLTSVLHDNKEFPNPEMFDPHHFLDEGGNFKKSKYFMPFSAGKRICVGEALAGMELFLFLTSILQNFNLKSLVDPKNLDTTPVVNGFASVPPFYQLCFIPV
# Sequence of Photinus pyralis (firefly) luciferase (P08659 whole entry): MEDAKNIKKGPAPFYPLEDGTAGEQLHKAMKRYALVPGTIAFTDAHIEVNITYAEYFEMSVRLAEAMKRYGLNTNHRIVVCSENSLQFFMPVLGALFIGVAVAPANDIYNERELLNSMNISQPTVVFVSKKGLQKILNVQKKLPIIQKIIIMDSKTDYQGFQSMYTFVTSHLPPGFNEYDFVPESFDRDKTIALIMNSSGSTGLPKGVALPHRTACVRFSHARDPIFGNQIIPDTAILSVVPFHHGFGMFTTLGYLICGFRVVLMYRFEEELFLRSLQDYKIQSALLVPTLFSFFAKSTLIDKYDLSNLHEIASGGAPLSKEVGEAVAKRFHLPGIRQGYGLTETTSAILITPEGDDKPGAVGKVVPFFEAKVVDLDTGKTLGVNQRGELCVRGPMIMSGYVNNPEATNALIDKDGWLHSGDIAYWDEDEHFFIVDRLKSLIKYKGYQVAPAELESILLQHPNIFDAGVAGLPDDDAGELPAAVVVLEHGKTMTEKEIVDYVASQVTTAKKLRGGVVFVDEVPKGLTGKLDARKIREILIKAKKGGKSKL
# T2 sequence (P33261 whole entry): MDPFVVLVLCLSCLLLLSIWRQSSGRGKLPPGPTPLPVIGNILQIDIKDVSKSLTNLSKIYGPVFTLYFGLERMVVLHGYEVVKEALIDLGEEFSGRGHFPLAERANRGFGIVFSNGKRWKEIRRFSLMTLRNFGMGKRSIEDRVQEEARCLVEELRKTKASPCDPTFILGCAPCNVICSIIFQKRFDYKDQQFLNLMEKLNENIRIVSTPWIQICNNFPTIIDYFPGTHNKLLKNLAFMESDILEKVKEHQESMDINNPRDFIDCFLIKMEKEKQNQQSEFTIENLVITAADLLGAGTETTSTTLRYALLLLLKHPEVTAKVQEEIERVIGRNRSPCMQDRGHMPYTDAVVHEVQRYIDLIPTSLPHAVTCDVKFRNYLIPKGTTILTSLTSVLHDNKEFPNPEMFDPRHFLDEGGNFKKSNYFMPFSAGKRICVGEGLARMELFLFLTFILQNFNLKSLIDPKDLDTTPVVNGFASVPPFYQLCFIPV
# Sequence of CYP3A4 (P08684 whole entry): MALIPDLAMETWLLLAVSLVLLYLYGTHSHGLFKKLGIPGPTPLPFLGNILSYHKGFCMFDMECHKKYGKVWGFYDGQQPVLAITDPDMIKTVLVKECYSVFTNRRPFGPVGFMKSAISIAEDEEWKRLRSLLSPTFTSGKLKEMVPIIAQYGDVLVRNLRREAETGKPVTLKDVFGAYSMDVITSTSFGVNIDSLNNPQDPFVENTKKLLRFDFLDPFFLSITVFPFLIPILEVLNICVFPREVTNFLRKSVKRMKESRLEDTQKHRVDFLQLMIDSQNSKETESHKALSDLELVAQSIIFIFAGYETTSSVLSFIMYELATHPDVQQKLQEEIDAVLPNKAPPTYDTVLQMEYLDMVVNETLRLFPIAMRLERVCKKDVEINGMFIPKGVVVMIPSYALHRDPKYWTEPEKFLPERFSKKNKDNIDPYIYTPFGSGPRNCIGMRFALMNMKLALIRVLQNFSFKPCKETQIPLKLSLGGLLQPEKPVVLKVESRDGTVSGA
# Sequence of human CYP2D6 (P10635 whole entry): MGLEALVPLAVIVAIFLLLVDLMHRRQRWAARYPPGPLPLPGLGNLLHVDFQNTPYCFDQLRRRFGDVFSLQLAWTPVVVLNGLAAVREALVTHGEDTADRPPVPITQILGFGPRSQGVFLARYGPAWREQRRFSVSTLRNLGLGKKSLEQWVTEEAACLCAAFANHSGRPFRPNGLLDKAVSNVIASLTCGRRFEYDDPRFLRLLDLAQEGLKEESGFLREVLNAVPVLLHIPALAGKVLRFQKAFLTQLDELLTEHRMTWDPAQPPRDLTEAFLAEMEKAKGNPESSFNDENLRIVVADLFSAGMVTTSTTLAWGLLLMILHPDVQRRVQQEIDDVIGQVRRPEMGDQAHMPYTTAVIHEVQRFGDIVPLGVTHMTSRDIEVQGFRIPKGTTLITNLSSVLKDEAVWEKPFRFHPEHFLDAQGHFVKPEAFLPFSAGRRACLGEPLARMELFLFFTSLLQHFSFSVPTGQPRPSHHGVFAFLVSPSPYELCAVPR
compound,measurement,setting,value
CCN(CC)C(=O)/C(C#N)=C/c1cc(O)c(O)c([N+](=O)[O-])c1 [Entacapone],Luciferase IC50 (half-maximal inhibitory concentration),[1],Inactive
same,CYP1A2 IC50 (half-maximal inhibitory concentration),human CYP1A2 [2],Inactive
same,CYP2C19 IC50 (half-maximal inhibitory concentration),human CYP2C19 [3],Inactive
same,CYP2D6 IC50 (half-maximal inhibitory concentration),human CYP2D6,Inactive
same,CYP3A4 IC50 (half-maximal inhibitory concentration),CYP3A4,Inactive
same,IC50,human CYP2C9 [4]; [8],0.2 µM
CCC(CN)=C(c1ccccc1)c1ccccc1.Cl [Etifelmine hydrochloride],Luciferase IC50,[1],Inactive
same,CYP1A2 Efficacy,human CYP1A2 [2],14.36 ± 3.71 (-50 ± 13) %
same,CYP2C9 Efficacy,human CYP2C9 [5],11.85 ± 3.88 (-96 ± 8) %
same,CYP2C19 Efficacy,human CYP2C19 [3],5.99 ± 2.37 (-107 ± 10) %
same,CYP2D6 Efficacy,human CYP2D6,4.07 ± 0.52 (-106 ± 3) %
C#Cc1ccc(-c2ccccc2F)cc1 [Fluretofene],IC50,[1],25.8 µM
same,IC50,human CYP1A2 [6],0.88 µM
same,IC50,human CYP2C9 [4],16.1 µM
same,IC50,human CYP2C19 [7],25.7 µM
CCCCCCCCCCCCCCCC[N+](C)(C)C.[Cl-] [Hexadecyl trimethyl ammonium chloride],Luciferase IC50,[1],Inactive
same,CYP1A2 IC50,human CYP1A2 [2],Inactive
same,CYP2C9 IC50,human CYP2C9 [5],Inactive
same,CYP2C19 Efficacy,human CYP2C19 [3],43.2 ± 0.0 (-68 ± 16) %
same,CYP2D6 Efficacy,human CYP2D6,0.8 ± 0.05 (-93 ± 8) %
C=CCOC(Cn1ccnc1)c1ccc(Cl)cc1Cl.O=S(=O)(O)O (stereo not shown) [Imazalil sulfate],Luciferase IC50 (half-maximal inhibitory concentration),[1],Inactive
same,CYP2C9 Efficacy (in parenthesis),human CYP2C9 [5],0.63 ± 0.18 (-107 ± 5) %
same,IC50,human CYP2C9 [5],0.63 µM
same,CYP2C19 Efficacy (in parenthesis),human CYP2C19 [3],0.22 ± 0.08 (-143 ± 13) %
same,IC50,human CYP2C19 [3],0.22 µM
same,CYP2D6 Efficacy (in parenthesis),human CYP2D6,5.1 ± 0.35 (-106 ± 4) %
same,IC50,human CYP2D6,5.1 µM
same,CYP3A4 Efficacy (in parenthesis),CYP3A4,0.12 ± 0.02 (-91 ± 3) %
same,IC50,CYP3A4,0.12 µM
CCC(C)n1ncn(-c2ccc(N3CCN(c4ccc(OCC5COC(Cn6cncn6)(c6ccc(Cl)cc6Cl)O5)cc4)CC3)cc2)c1=O (stereo not shown) [Itraconazole],Luciferase IC50 (half-maximal inhibitory concentration),[1],Inactive
same,CYP1A2 IC50 (half-maximal inhibitory concentration),human CYP1A2 [2],Inactive
same,CYP2C9 Efficacy (in parenthesis),human CYP2C9 [5]; human,14.05 ± 3.21 (-81 ± 13) %
same,CYP2C19 Efficacy (in parenthesis),human CYP2C19 [3]; human,8.3 ± 4.22 (-53 ± 15) %
same,CYP2D6 IC50 (half-maximal inhibitory concentration),human CYP2D6,Inactive
same,IC50,human CYP2C9 [4]; [8],14 µM
same,IC50,human CYP2C19 [7]; [9],8.3 µM
Cc1ccc2nc(N)[nH]c(=O)c2c1Sc1ccncc1.Cl.Cl [Nolatrexed dihydrochloride],Luciferase IC50,[1],Inactive
same,CYP1A2 Efficacy,human CYP1A2 [2],3.33 ± 0.9 (-94 ± 12) %
same,CYP2C9 Efficacy,human CYP2C9 [5],4.82 ± 1.17 (-95 ± 9) %
same,CYP2C19 Efficacy,human CYP2C19 [3],3.3 ± 1.68 (-116 ± 1) %
same,CYP2D6 Efficacy,human CYP2D6,14.43 ± 1.84 (-95 ± 12) %
NS(=O)(=O)C(F)(F)C(F)(F)C(F)(F)C(F)(F)C(F)(F)C(F)(F)C(F)(F)C(F)(F)F [PFOSA],Luciferase IC50 (half-maximal inhibitory concentration),[1],Inactive
same,CYP1A2 IC50 (half-maximal inhibitory concentration),human CYP1A2 [2],Inactive
same,CYP2D6 IC50 (half-maximal inhibitory concentration),human CYP2D6,Inactive
same,CYP3A4 IC50 (half-maximal inhibitory concentration),CYP3A4,Inactive
same,IC50,human CYP2C9 [4]; [8],0.71 µM
same,IC50,human CYP2C19 [7]; [9],64.3 µM
CCCCCCCCCCCCCCCCCC(=O)O.OCCN(CCO)CCO [Triethanolamine stearate],Luciferase Efficacy (in parenthesis),[1],74.82 ± 6.08 (-26 ± 14) %
same,IC50,[1]; read-out: Luciferase IC50 (half-maximal inhibitory concentration),74.8 µM
same,CYP1A2 Efficacy (in parenthesis),human CYP1A2 [2],3.98 ± 2.02 (-97 ± 4) %
same,IC50,human CYP1A2 [2],3.98 µM
same,CYP2C9 Efficacy (in parenthesis),human CYP2C9 [5],1.38 ± 0.34 (-98 ± 6) %
same,IC50,human CYP2C9 [5],1.38 µM
same,CYP2C19 Efficacy (in parenthesis),human CYP2C19 [3],0.42 ± 0.18 (-127 ± 1) %
same,IC50,human CYP2C19 [3],0.42 µM
same,CYP2D6 Efficacy (in parenthesis),human CYP2D6,35.34 ± 0 (-82 ± 6) %
same,IC50,human CYP2D6,35.3 µM
Cl[C@H]1[C@H](Cl)[C@@H](Cl)[C@H](Cl)[C@@H](Cl)[C@@H]1Cl [beta-Hexachlorocyclohexane],Luciferase IC50,[1],Inactive
same,CYP2D6 IC50,human CYP2D6,Inactive
same,IC50,human CYP1A2 [6]; CYP1A2 IC50,1.14 µM
same,IC50,human CYP2C9 [4]; CYP2C9 IC50,4.17 µM
same,IC50,human CYP2C19 [7]; CYP2C19 IC50,1.96 µM
"CC(C)c1nc(CN(C)C(=O)N[C@H](C(=O)N[C@@H](Cc2ccccc2)C[C@H](O)[C@H](Cc2ccccc2)NC(=O)OCc2cncs2)C(C)C)cs1 [ritonavir, reference compound]",Luciferase IC50 (half-maximal inhibitory concentration),[1],Inactive
Diniconazole,Luciferase IC50 (half-maximal inhibitory concentration),[1],Inactive
HMR1171 trifluoroacetate (1:1),Luciferase IC50,[1],Inactive
same,CYP1A2 IC50,human CYP1A2 [2],Inactive
same,IC50,human CYP2C9 [5],28.1 µM
same,IC50,human CYP2C19 [3],28.3 µM
same,IC50,human CYP2D6,8.87 µM
Kadethrin,Luciferase IC50,[1],Inactive
